Source: BindingDB's records for doi:10.1021/acs.jmedchem.9b00061 (Ajou University, 2019)
Where a SMILES comes first, the peptide text is derived from it. Bridges are numbered along the chain shown (N, C = ends).

Biological target: Toll-like receptor 4 (Homo sapiens, UniProt O00206)
Assay: Binding affinity to recombinant human TLR4 assessed as dissociation constant up to 200 uM by surface plasmon resonance analysis

Sequence of Toll-like receptor 4 (O00206 whole entry): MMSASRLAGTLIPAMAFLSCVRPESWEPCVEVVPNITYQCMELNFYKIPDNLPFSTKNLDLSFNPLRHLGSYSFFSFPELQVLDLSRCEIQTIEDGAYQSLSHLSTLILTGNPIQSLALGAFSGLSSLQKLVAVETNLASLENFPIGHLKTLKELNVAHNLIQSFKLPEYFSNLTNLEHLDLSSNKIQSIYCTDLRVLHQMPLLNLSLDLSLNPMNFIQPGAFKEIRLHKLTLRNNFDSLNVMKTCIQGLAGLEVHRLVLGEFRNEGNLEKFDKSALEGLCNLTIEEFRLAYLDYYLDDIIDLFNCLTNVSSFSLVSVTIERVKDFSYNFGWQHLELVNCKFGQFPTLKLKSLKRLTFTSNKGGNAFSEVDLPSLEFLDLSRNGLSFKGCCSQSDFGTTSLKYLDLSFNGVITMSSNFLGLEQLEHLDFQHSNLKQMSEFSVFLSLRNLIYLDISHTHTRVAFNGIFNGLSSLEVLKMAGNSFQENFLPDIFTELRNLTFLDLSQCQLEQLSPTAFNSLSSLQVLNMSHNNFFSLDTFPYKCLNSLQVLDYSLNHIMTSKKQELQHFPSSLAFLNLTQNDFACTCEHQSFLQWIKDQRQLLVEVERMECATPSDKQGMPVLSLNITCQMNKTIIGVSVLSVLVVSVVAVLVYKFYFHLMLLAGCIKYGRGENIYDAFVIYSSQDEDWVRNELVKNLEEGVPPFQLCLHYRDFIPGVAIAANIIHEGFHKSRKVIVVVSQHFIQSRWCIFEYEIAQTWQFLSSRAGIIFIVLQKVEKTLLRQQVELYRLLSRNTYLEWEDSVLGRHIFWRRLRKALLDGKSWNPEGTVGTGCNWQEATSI

Row | Molecule | Kd [nM]
1 | CC[C@H](C)[C@@H]1NC(=O)[C@H](Cc2c[nH]c3ccccc23)NC(=O)[C@H](Cc2c[nH]c3ccccc23)NC(=O)[C@@H](NC(=O)[C@H](CO)NC(=O)[C@H](Cc2ccccc2)NC(=O)[C@@H](NC(=O)CNC(=O)[C@@H](N)CC(C)C)C(C)C)CC(=O)NCCCC[C@@H](C(=O)N[C@@H](CC(C)C)C(=O)N[C@H](C(=O)O)C(C)C)NC1=O (H-LGVFSDWWIKLV-OH; lactam 6-10) | 1.4
2 | H-LGVFSSWWIKLV-OH | 1.1
